Assay results published in patent US20040002425A1, “Triketone derivatives and herbicides” (Idemitsu Kosan Co., Ltd., priority 1998, published 2004).

System: Transplanted paddy rice plant
Assay: Biological Test 1 (treatment on the 3rd day after transplantation): chemical injury to paddy rice
Type: in vivo
Set-up: scale not given here
Details: Treatment performed 3 days after transplantation
Procedure: (1) Preparation of Herbicide
Talc (57 parts by weight) and bentonite (40 parts by weight), both serving as carriers, and sodium alkylbenzenesulfate (3 parts by weight) serving as a surfactant were homogeneously ground and mixed to thereby obtain a carrier for water-dispersible powder.
Subsequently, to the water-dispersible powder (90 parts by weight), the triketone derivative (compound No. A-1) produced in Example I-1 (10 parts by weight) was added, and the resultant mixture was homogeneously ground and mixed to thereby obtain a herbicide.
(i) Biological Test 1 (Soaking in Water/Treatment on the 3rd Day After Transplantation)
A Wagner pot (1/2000 are) was filled with paddy soil, and seeds of barnyard grass were planted on the surface layer of the soil, and further, rice seedlings grown to the 2.5-leaf stage were transplanted.
Subsequently, water was poured in the pot to a height of 3 cm above the soil surface, and placed in a greenhouse where the temperature was maintained at 20-25° C., to thereby grow the plant under suitable conditions.
On the 3rd day after transplantation, the herbicide prepared in (1) above was applied to the plant in a predetermined amount. On the 30th day after treatment with the herbicide, weed-killing ratio, herbicidal effect, and extent of chemical injury to paddy rice were examined.
In Biological tests 1 and 2, herbicidal effect and extent of chemical injury were evaluated according to the below-described standards.
3) Chemical Injury to Paddy Rice
Chemical injury to paddy rice was evaluated according to the following criteria.

Row | SMILES | Chemical injury, Transplanted paddy rice plant (dose 100 g/ha) | Chemical injury, Transplanted paddy rice plant (dose 200 g/ha)
1 | Cc1ccc(SC2=C(C(=O)c3ccc4c(c3Cl)CCS4(=O)=O)C(=O)CCC2)cc1 [B-14, 4-chloro-5-[3-(4-methylphenyl)thio-1-oxocyclohexan-2-yl]carbonyl-2,3-dihydrobenzothiophene-1,1-dioxide] | 0 | 0
2 | Cc1cccc(SC2=C(C(=O)c3ccc4c(c3Cl)CCS4(=O)=O)C(=O)CCC2)c1 [B-15, 4-chloro-5-[3-(3-methylphenyl)thio-1-oxocyclohexan-2-yl]carbonyl-2,3-dihydrobenzothiophene-1,1-dioxide] | 0 | 0
3 | Cc1ccccc1SC1=C(C(=O)c2ccc3c(c2Cl)CCS3(=O)=O)C(=O)CCC1 [B-16] | 0 | 0
4 | O=C1CCCC(Sc2ccccc2Cl)=C1C(=O)c1ccc2c(c1Cl)CCS2(=O)=O [B-17] | 0 | 0
5 | CC(C)c1ccccc1SC1=C(C(=O)c2ccc3c(c2Cl)CCS3(=O)=O)C(=O)CCC1 [B-18] | 0 | 0
6 | COC(=O)c1ccccc1SC1=C(C(=O)c2ccc3c(c2Cl)CCS3(=O)=O)C(=O)CCC1 [B-19] | 0 | 0
7 | COc1ccc(SC2=C(C(=O)c3ccc4c(c3Cl)CCS4(=O)=O)C(=O)CCC2)cc1 [B-20] | 0 | 0
8 | O=C1CCCC(Sc2ccc(Br)cc2)=C1C(=O)c1ccc2c(c1Cl)CCS2(=O)=O [B-21] | 0 | 0
9 | C=CCSC1=C(C(=O)c2ccc3c(c2Cl)CCS3(=O)=O)C(=O)CCC1 [B-22, 4-chloro-5-[3-(3-propenyl)thio-1-oxocyclohexan-2-yl]carbonyl-2,3-dihydrobenzothiophene-1,1-dioxide] | 0 | 0
10 | CC(C)(C)SC1=C(C(=O)c2ccc3c(c2Cl)CCS3(=O)=O)C(=O)CCC1 [B-23] | 0 | 0
11 | CS(=O)(=O)C1=C(C(=O)c2ccc3c(c2Cl)CCS3(=O)=O)C(=O)CCC1 [B-24] | 0 | 0
12 | CC1CC(=O)C(C(=O)c2ccc3c(c2Cl)CCS3(=O)=O)=C(Cl)C1 (stereo not drawn) [B-25] | 0 | 1
13 | CC1CC(=O)C(C(=O)c2ccc3c(c2Cl)CCS3(=O)=O)=C(Sc2ccccc2)C1 (stereo not drawn) [B-26] | 0 | 0
14 | CCS(=O)(=O)C1=C(C(=O)c2ccc3c(c2Cl)CCS3(=O)=O)C(=O)CCC1 [B-27] | 0 | 0
15 | CCCS(=O)(=O)C1=C(C(=O)c2ccc3c(c2Cl)CCS3(=O)=O)C(=O)CCC1 [B-28] | 0 | 0
16 | CC(C)S(=O)(=O)C1=C(C(=O)c2ccc3c(c2Cl)CCS3(=O)=O)C(=O)CCC1 [B-29] | 0 | 0
17 | CCCCS(=O)(=O)C1=C(C(=O)c2ccc3c(c2Cl)CCS3(=O)=O)C(=O)CCC1 [B-30] | 0 | 0
18 | O=C1CCCC(S(=O)(=O)c2ccccc2)=C1C(=O)c1ccc2c(c1Cl)CCS2(=O)=O [B-31] | 0 | 0

Row | SMILES | Chemical injury, Transplanted paddy rice plant (dose 100 g/ha) | Chemical injury, Transplanted paddy rice plant (dose 200 g/ha)
19 | Cc1ccccc1S(=O)(=O)C1=C(C(=O)c2ccc3c(c2Cl)CCS3(=O)=O)C(=O)CCC1 [B-32] | 0 | 0
20 | Cc1cccc(S(=O)(=O)C2=C(C(=O)c3ccc4c(c3Cl)CCS4(=O)=O)C(=O)CCC2)c1 [B-33] | 0 | 0
21 | Cc1ccc(S(=O)(=O)C2=C(C(=O)c3ccc4c(c3Cl)CCS4(=O)=O)C(=O)CCC2)cc1 [B-34] | 0 | 0
22 | O=C1CCCC(S(=O)(=O)c2ccccc2Cl)=C1C(=O)c1ccc2c(c1Cl)CCS2(=O)=O [B-35] | 0 | 0
23 | CC(C)c1ccccc1S(=O)(=O)C1=C(C(=O)c2ccc3c(c2Cl)CCS3(=O)=O)C(=O)CCC1 [B-36] | 0 | 0
24 | COc1ccc(S(=O)(=O)C2=C(C(=O)c3ccc4c(c3Cl)CCS4(=O)=O)C(=O)CCC2)cc1 [B-37] | 0 | 0
25 | C=CCS(=O)(=O)C1=C(C(=O)c2ccc3c(c2Cl)CCS3(=O)=O)C(=O)CCC1 [B-38, 4-chloro-5-[3-(3-propenyl)sulfonyl-1-oxocyclohexan-2-yl]carbonyl-2,3-dihydrobenzothiophene-1,1-dioxide] | 0 | 0
26 | CC(C)(C)S(=O)(=O)C1=C(C(=O)c2ccc3c(c2Cl)CCS3(=O)=O)C(=O)CCC1 [B-39] | 0 | 0
27 | O=C1CCCC(S(=O)(=O)Cc2ccccc2)=C1C(=O)c1ccc2c(c1Cl)CCS2(=O)=O [B-40] | 0 | 0
28 | O=C1CCCC(S(=O)(=O)c2ccc(Br)cc2)=C1C(=O)c1ccc2c(c1Cl)CCS2(=O)=O [B-42] | 0 | 0
29 | O=C1CCCC(S(=O)(=O)c2ccc(O)cc2)=C1C(=O)c1ccc2c(c1Cl)CCS2(=O)=O [B-43] | 0 | 0
30 | COC(=O)c1ccccc1S(=O)(=O)C1=C(C(=O)c2ccc3c(c2Cl)CCS3(=O)=O)C(=O)CCC1 [B-44] | 0 | 0
31 | CC(=O)c1ccc(SC2=C(C(=O)c3ccc4c(c3Cl)CCS4(=O)=O)C(=O)CCC2)cc1 [B-45, 4-chloro-5-[3-(4-acetylphenyl)thio-1-oxocyclohexan-2-yl]carbonyl-2,3-dihydrobenzothiophene-1,1-dioxide] | 0 | 0
32 | CC(=O)c1ccc(S(=O)(=O)C2=C(C(=O)c3ccc4c(c3Cl)CCS4(=O)=O)C(=O)CCC2)cc1 [B-46] | 0 | 0
33 | Cc1c(C(=O)C2=C(Cl)CCCC2=O)ccc2c1CCS2(=O)=O [B-47] | 0 | 0
34 | O=C1CCCC(Sc2ccccc2O)=C1C(=O)c1ccc2c(c1Cl)CCS2(=O)=O [B-48] | 0 | 0
35 | O=C1CCCC(S(=O)(=O)c2ccccc2O)=C1C(=O)c1ccc2c(c1Cl)CCS2(=O)=O [B-49] | 0 | 0
36 | COCCOC1=C(C(=O)c2ccc3c(c2Cl)CCS3(=O)=O)C(=O)CCC1 [B-53] | 0 | 0
